In ChEMBL document CHEMBL1130972, “Sugar-substituted 2-azetidinones as cholesterol absorption inhibitors” (1998):

Key:
Cricetinae gen. sp. [1] = assay: Tested for inhibition of serum cholesterol absorption in cholesterol-fed hamsters at a oral dose of 10 mg/Kg/day; assay type: functional, hamster
Cricetinae gen. sp. [2] = assay: Tested for inhibition of liver cholesterol esters absorption in cholesterol-fed hamsters at a oral dose of 10 mg/Kg/day; assay type: functional, Cricetulus griseus
Cricetinae gen. sp. [3] = assay: Tested for inhibition of liver cholesterol esters absorption in cholesterol-fed hamsters at a oral dose of 8 mg/Kg/day; assay type: functional, Cricetulus griseus
Cricetinae gen. sp. [4] = assay: Tested for inhibition of serum cholesterol absorption in cholesterol-fed hamsters at a oral dose of 8 mg/Kg/day; assay type: functional, Cricetulus griseus

## COc1ccc(N2C(=O)[C@H](CCCc3ccccc3)[C@H]2c2ccc(O)cc2)cc1
Cricetinae gen. sp. [1]
  Reduction: -25%
Cricetinae gen. sp. [2]
  Reduction: -70%

## COC(=O)[C@H]1O[C@@H](Oc2ccc([C@@H]3[C@@H](CCCc4ccccc4)C(=O)N3c3ccc(OC)cc3)cc2)[C@H](O)[C@@H](O)[C@@H]1O
Cricetinae gen. sp. [3]
  Reduction: -62%
Cricetinae gen. sp. [4]
  Reduction: -23%

## COc1ccc(N2C(=O)[C@H](CCCc3ccccc3)[C@H]2c2ccc(O[C@@H]3O[C@H](COCc4ccccc4)[C@@H](OCc4ccccc4)[C@H](OCc4ccccc4)[C@H]3OCc3ccccc3)cc2)cc1
Cricetinae gen. sp. [1]
  Reduction: -9%
Cricetinae gen. sp. [2]
  Reduction: -21%

## COc1ccc(N2C(=O)[C@H](CCCc3ccccc3)[C@H]2c2ccc(O[C@@H]3O[C@H](CO)[C@@H](O)[C@H](O)[C@H]3O)cc2)cc1
Cricetinae gen. sp. [1]
  Reduction: -29%
Cricetinae gen. sp. [2]
  Reduction: -86%

## COc1ccc(N2C(=O)[C@H](CCCc3ccccc3)[C@H]2c2ccc(O[C@@H]3O[C@H](C(=O)O)[C@@H](O)[C@H](O)[C@H]3O)cc2)cc1
Cricetinae gen. sp. [1]
  Reduction: -10%
Cricetinae gen. sp. [2]
  Reduction: -9%

## COc1ccc(N2C(=O)[C@H](CCCc3ccccc3)[C@H]2c2ccc(OC[C@H]3O[C@H](OC)[C@H](O)[C@@H](O)[C@@H]3O)cc2)cc1
Cricetinae gen. sp. [1]
  Reduction: -10%
Cricetinae gen. sp. [2]
  Reduction: -48%

## COc1ccc([C@@H]2[C@@H](CCCc3ccccc3)C(=O)N2c2ccc(OC)cc2)cc1 [SCH-48461]
Cricetinae gen. sp. [1]
  Reduction: -43%
Cricetinae gen. sp. [2]
  Reduction: -93%
